From article PMC3608462 (Biochemistry, 2011)
Residues, ends and D or L forms follow the SMILES beside them.

How the values were obtained:
[1] = tested on: C. trachomatis LGV-L2 434-infected HeLa cells; conditions: C. trachomatis LGV-L2 434-infected HeLa cells treated with lactacystin; cited from earlier work
[2] = molecular target: CPAF (Chlamydia trachomatis serovar D, UniProt O84866); format: biochemical
Sequence of CPAF (O84866 276-601): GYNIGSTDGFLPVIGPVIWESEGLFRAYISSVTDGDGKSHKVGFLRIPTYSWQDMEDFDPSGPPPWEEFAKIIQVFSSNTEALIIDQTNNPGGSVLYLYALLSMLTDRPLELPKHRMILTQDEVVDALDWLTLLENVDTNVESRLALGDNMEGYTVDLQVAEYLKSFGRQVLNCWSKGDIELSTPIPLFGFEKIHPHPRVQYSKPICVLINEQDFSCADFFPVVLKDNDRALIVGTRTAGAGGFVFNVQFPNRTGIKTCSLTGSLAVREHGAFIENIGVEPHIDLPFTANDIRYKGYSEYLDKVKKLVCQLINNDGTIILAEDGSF
Sequence of CPAF (O84866 1-234): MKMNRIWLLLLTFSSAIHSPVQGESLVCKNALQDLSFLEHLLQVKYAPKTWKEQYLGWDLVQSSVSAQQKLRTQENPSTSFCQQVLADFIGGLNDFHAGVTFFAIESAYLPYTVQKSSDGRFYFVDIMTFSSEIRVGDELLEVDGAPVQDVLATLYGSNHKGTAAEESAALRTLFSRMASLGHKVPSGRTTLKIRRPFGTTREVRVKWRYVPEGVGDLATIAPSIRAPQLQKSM

CC(=O)N[C@@H](CSC(=O)[C@]1([C@@H](O)C(C)C)NC(=O)[C@H](C)[C@@H]1O)C(=O)O [lactacystin]
effect on vimentin in infected HeLa cells [1]: fiber oligermerization of vimentin

CSCC[C@H](NC(=O)[C@@H]1CCCN1C(=O)[C@H](CO)NC(=O)[C@H](Cc1ccc(O)cc1)NC(=O)[C@H](Cc1ccccc1)NC(=O)[C@H](CC(C)C)NC(=O)[C@@H](N)CO)C(=O)N[C@H](C(=O)N1CCC[C@H]1C(=O)N[C@@H](Cc1c[nH]cn1)C(=O)N[C@@H](Cc1ccccc1)C(=O)N[C@@H](Cc1c[nH]c2ccccc12)C(=O)N[C@@H](C)C(=O)N[C@@H](CCC(=O)O)C(=O)N[C@@H](CC(C)C)C(=O)N[C@@H](CCCNC(=N)N)C(=O)N[C@@H](CC(N)=O)C(=O)N[C@@H](Cc1c[nH]cn1)C(=O)N[C@@H](Cc1ccc(O)cc1)C(=O)N[C@@H](C)C(=O)N[C@H](C(=O)N[C@@H](CO)C(=O)NCC(=O)N[C@@H](CC(C)C)C(=O)N[C@@H](CCCCN)C(=O)N[C@@H](CCCNC(=N)N)C(=O)N[C@@H](CCCNC(=N)N)C(=O)N[C@@H](CCCNC(=N)N)C(=O)N[C@@H](CCCNC(=N)N)C(=O)N[C@@H](CCCNC(=N)N)C(=O)N[C@@H](CCCNC(=N)N)C(=O)N[C@@H](CCCNC(=N)N)C(=O)N[C@@H](CCCNC(=N)N)C(=O)N[C@@H](CCCNC(=N)N)C(N)=O)[C@@H](C)O)C(C)C [peptide 4] (H-SLFYSPMVPHFWAELRNHYATSGLKRRRRRRRRR-NH2)
potency relative to inhibitor 3 (fold better) ([2]; ratio of CPAF IC50 values): ~30 fold
potency relative to lactacystin (fold more potent) ([2]; ratio of CPAF IC50 values): ~200 fold

H-NFALSHFRLPLSTYKEMPYVSHWAGRRRRRRRRR-NH2 [peptide 5]
CPAF inhibitory activity in vitro ([2]; in vitro): no CPAF inhibitory activity

CSCC[C@H](NC(=O)[C@@H]1CCCN1C(=O)[C@H](CO)NC(=O)[C@H](Cc1ccc(O)cc1)NC(=O)[C@H](Cc1ccccc1)NC(=O)[C@H](CC(C)C)NC(=O)[C@@H](N)CO)C(=O)N[C@H](C(=O)N1CCC[C@H]1C(=O)N[C@@H](Cc1c[nH]cn1)C(=O)N[C@@H](Cc1ccccc1)C(=O)N[C@@H](Cc1c[nH]c2ccccc12)C(=O)N[C@@H](C)C(=O)N[C@@H](CCC(=O)O)C(=O)N[C@@H](CC(C)C)C(=O)N[C@@H](CCCNC(=N)N)C(=O)N[C@@H](CC(N)=O)C(=O)N[C@@H](Cc1c[nH]cn1)C(=O)N[C@@H](Cc1ccc(O)cc1)C(=O)N[C@@H](C)C(=O)N[C@H](C(=O)N[C@@H](CO)C(=O)NCC(=O)N[C@@H](CC(C)C)C(=O)N[C@@H](CCCCN)C(N)=O)[C@@H](C)O)C(C)C [peptide 3] (H-SLFYSPMVPHFWAELRNHYATSGLK-NH2)
potency relative to lactacystin (fold more potent) ([2]; ratio of CPAF IC50 values): 6 fold
